# Reference: patent US10004222B2, “Small molecule ice recrystallization inhibitors and methods of use thereof” (THE UNIVERSITY OF OTTAWA, priority 2012, dated 2018)
# What was measured:
# [1] = test system: CD34+ cells (hematopoietic stem cells); test: post-thaw viability of CD34+ cells of cryopreserved umbilical cord blood, flow cytometry; assay type: cell-based, human; settings: for Post-Thaw Viab.: UCB Unit 27; for CD34+ cell viability compared with control: vs control that contained 10% DMSO only
# Protocol: Whole umbilical cord blood (UCB) should be stored at room temperature (15-25° C.) and processed within 48 hrs of collection. UCB is removed from collection bag and spilt in equal parts into 50 mL Falcon tubes. No more than 25 mL of UCB should be added per Falcon tube. UCB is diluted with 6% hetastarch (Hespan) to obtain a final concentration of 1% hetastarch and incubated for 10 minutes at room temperature. The tubes are then centrifuged at 50 g at 10° C. for 15-20 minutes, depending on volume. The centrifuge should not brake to stop. For total volumes of 30 mL, 15-17 minute centrifugation is utilized and for total volumes of 35 mL, 17-20 minute centrifugation is utilized. The supernatant and buffy coat (plasma and leukocytes) are removed carefully (not collecting RBCs) from the tubes and collected into new 50 mL Falcon tubes. These tubes are centrifuged at 400 g and 10° C. for 10 mins to pellet cells. The centrifuge brake can now be utilized. Plasma is removed and kept in new 50 mL Falcon tubes on ice. The cell pellets resuspended and combined in plasma to a total volume of 20 mL to generate leukocyte concentrate (LC). The LC is kept on ice for the duration of its use. Total mononuclear (CD45^+) and CD34^+ (hematopoetic stem cells) cell concentrations and viability are determined by flow cytometry (see Flow Cytometry procedure below). Aliquots of LC (50,000 CD34^+ cells) are utilized for cryopreservation experiments (see Cryopreservation Experiments procedure below).
# Aliquots of LC (50,000 CD34^+ cells) are added to 2.0 mL cryovials. For each experiment, four cryovials are prepared (two for post-thaw viability analysis using flow cytometry and two for functionality analysis using the colony forming unit assay). Cryovials are kept on ice until placement in −80° C. freezer. Cryovials are centrifuged at 400 g and 10° C. for 5 minutes to pellet cells. After centrifugation, the time taken until placement in −80° C. freezer should not exceed 10 minutes. Supernatant is removed by aspiration or by decanting, but preferably by aspiration. Plasma (volume depends on desired cryosolution concentration) is added and cells are suspended by pipetting. Pre-made cryosolutions (see Cryosolutions) are added (volume depends on desired cryosolution concentration) and mixed by pipetting. Cryovials are placed in a Mr. Frosty® rate controlled freezing container which is then placed in a −80° C. freezer for 24 hours. By placing the cryovials in the freezing container, their contents undergo a cooling rate of about −1° C. per minute. After 24 hours, the cryovials are transferred to a liquid nitrogen dewar for storage until thawed for analysis.
# Cryosolutions are prepared in distilled autoclaved water supplemented with 0.9% saline and 5% dextran for cryopreservation experiments and diluted with different volumes of plasma in cryovials depending on desired concentration of ice recrystallization inhibitor. N-(4-chlorophenyl)-D-gluconamide (4a) and N-(2-fluorophenyl)-D-gluconamide (2a) are prepared at 25 mM and N-(4-methoxyphenyl)-D-gluconamide (3a) and N-(2,6-difluorobenzyl)-D-gluconamide (1b) are prepared at 55 mM. 100, 50, 33 or 20 μL of 25 mM N-(4-chlorophenyl)-D-gluconamide (4a) or N-(2-fluorophenyl)-D-gluconamide (2a) are added to cryovials containing 50,000 CD34^+ cells suspended in 0, 50, 67, or 80 μL of plasma, respectively, for a final IRI concentration of 25, 12.5, 8 or 5 mM, respectively. 100, 50, 33 or 20 μL of 55 mM N-(4-methoxyphenyl)-D-gluconamide (3a) or N-(2,6-difluorobenzyl)-D-gluconamide (1b) are added to cryovials containing 50,000 CD34^+ cells suspended in 0, 50, 67, or 80 μL of plasma, respectively, for a final IRI concentration of […], 18 or 11 mM, respectively.
# Total mononuclear cell (CD45+) and progenitor cell (CD34+) viability is assessed by flow cytometry using International Society of Hematotherapy and Graft Engineering (ISHAGE) guidelines (J. Hematother. Stem Cell Res. 1996, 5, 213-226). […]
# [2] = splat cooling ice recrystallization inhibition (IRI) assay; settings: for decrease in grain size: mean grain size vs PBS alone, 30 min at −6.4° C., FIG. 28
# Protocol: In this assay, the area of ice crystals are measured after a 30 minute annealing time at −6.4° C. and compared to a positive control for ice recrystallization resulting in a quantitative measurement of the mean ice grain size. For a positive control, a phosphate buffered saline (PBS) solution was utilized. All samples were normalized to the PBS positive control. The ice recrystallization inhibition activity of the carbohydrate-based non-ionic surfactants n-octyl-β-D-glucopyranoside (compound 3) and n-octyl-β-D-galactopyranoside (compound 4) is shown in FIG. 1.
# In this assay, the area of ice crystals are measured after a 30 minute annealing time at −6.4° C. and compared to a positive control for ice recrystallization resulting in a quantitative measurement of the mean ice grain size. For a positive control, a PBS solution was utilized. All samples were normalized to the PBS positive control.
# N-aryl-D-gluconamides (3a), (2a), (4a), and (1b) are a class of low molecular weight carbohydrate-based compounds. The ice recrystallization inhibition activity of (3a), (2a), (4a), and (1b) was assessed using a “splat cooling” assay. In this assay, the area of ice crystals are measured after a 30 minutes annealing time at −6.4° C. and compared to a positive control for ice recrystallization resulting in a quantitative measurement of the mean ice grain size. For a positive control, PBS was utilized. All samples were normalized to the PBS positive control.
SMILES,Post-Thaw Viab. ([1]; 11 mM IRI),CD34+ cell viability compared with control [1],decrease in grain size [2],Post-Thaw Viab. ([1]; 5 mM IRI),ice recrystallization inhibition activity ([2]; concentration not given)
"COc1ccc(NC(=O)[C@H](O)[C@@H](O)[C@H](O)[C@H](O)CO)cc1 [(3a), N-(4-methoxyphenyl)-D-gluconamide]",78%,substantially similar to the control,~95%,,
"O=C(Nc1ccccc1F)[C@H](O)[C@@H](O)[C@H](O)[C@H](O)CO [(2a), N-(2-fluorophenyl)-D-gluconamide]",,substantially similar to the control,~95%,88%,
"O=C(NCc1c(F)cccc1F)[C@H](O)[C@@H](O)[C@H](O)[C@H](O)CO [(1b), N-(2,6-difluorobenzyl)-D-gluconamide]",57%,substantially similar to the control,about 85%,,higher IRI activity than compound (2b)
"O=C(Nc1ccc(Cl)cc1)[C@H](O)[C@@H](O)[C@H](O)[C@H](O)CO [(4a), N-(4-chlorophenyl)-D-gluconamide]",,substantially similar to the control,~60%,88%,
